# In patent US10988500B2, “Lipid A mimics, methods of preparation, and uses thereof” (Immunovaccine Technologies Inc., priority 2015, dated 2021):
# Key:
# [1] = tested on: bone marrow dendritic cells of C3H/HeOuJ (wild-type) mice; experiment: Dendritic cell activation (CD40/CD86, flow cytometry), wild-type cells (Example 13); assay type: cell-based, mouse; conditions: FIG. 7; for expression of CD40 and CD86 on CD11c positive dendritic cells: wild-type dendritic cells, 20 micrograms/millilitre, overnight stimulation; for induction of CD40 and CD86 relative to LPS: wild-type mice dendritic cells
# Experimental: (§1) Pathogen-free, female C3H/HeOuJ (wild-type) mice and C3H/HeJ (TLR4 mutant) mice, 6-8 weeks of age were purchased from the Jackson Laboratory (Bar Harbor, Me., USA) and were housed according to institutional guidelines with water and food ad libitum under filter controlled air circulation.
# (§2) Dendritic cells were prepared from bone marrow of either wild-type or TLR4 mutant mice as follows. Femurs and tibia bones were isolated from naïve mice and flushed under sterile conditions with phosphate buffered saline. Red blood cells were lysed using ammonium chloride potassium lysing solution. Cells were counted and resuspended in complete RMPI 1640 media containing 10% fetal bovine serum (Hyclone, Nepean, ON, Canada), 1% penicillin-streptomycin (Gibco, Burlington, ON, Canada), 2 millimolar L-glutamine (Gibco), 1% HEPES buffer (Gibco) and […] beta-mercaptoethanol (Sigma-Aldrich, Oakville, ON, Canada) at a concentration of 1.2×10E6 cells/millitre. Cells were cultured in a 6-well plate supplemented with 10 nanograms/milliliter of GM-CSF (Peprotech, Rocky Hill, N.J., USA) for 8 days, additional media was added on day 3 and day 6. On day 7, cells were stimulated with JL-265 or JL-266 prepared in DMSO, or DMSO vehicle control, or poly I:C (Thermo-Fisher), or lipopolysaccharide (LPS; Sigma-Aldrich). Non-adherent cells were collected on day 8 and stained with fluorochrome-conjugated antibodies specific for CD11c (clone), CD40 (clone) or CD86 (Clone). Cells were analyzed by flow cytometry using a FACSCalibur (BD Bioscience, Mississauga ON, Canada) and Win List 3D 7.0 software (Verity Software House, Topsham, Me., USA).
# (§3) Results were analysed by gating first on CD11c positive cells (dendritic cell marker), then determining the percent that were double positive for CD40 or CD86.
# [2] = tested on: C3 tumors (HPV16-expressing C3 cells); experiment: C3 tumor challenge, aqueous liposome vaccine (Example 10); assay type: in vivo, mouse (C57BL6); conditions: for Tumor Volume (mm^3): Table 1, Example 10, FP peptide 10 micrograms + lipid A mimic 10 micrograms in liposomes, water carrier, s.c. on day 5 after C3 implantation; for tumor volumes compared to control groups: at 28 days, liposome vaccine, FIG. 4
# From the text: (§4) Pathogen-free, female C57BL6 mice, 6-8 weeks of age were purchased from Charles River Laboratories (St. Constant, Quebec, Canada) and were housed according to institutional guidelines with water and food ad libitum under filter controlled air circulation.
# (§5) The C3 tumor cell line used in this study is a well-described mouse model for pre-clinical cervical cancer research. HPV16-expressing C3 cells are derived from B6 mouse embryo cells transformed with the complete HPV16 genome under its own promoter and an activated-ras oncogene. The C3 cell line develops tumors when injected subcutaneously and has been used in cancer challenge studies to examine the efficacy of vaccine administered before or after C3 tumor cell implantation. The C3 cell line was maintained in Iscove Modified Dulbecco's Medium (IMDM; Sigma, St. Louis, Mo.) supplemented with 10% heat-inactivated fetal calf serum (Hyclone), 2 mM 1-glutamine, […] 2-mercaptoethanol, penicillin and streptomycin. Cells were incubated at 37° C./5% CO2.
# (§6) The HPV16E7 (H-2Db) peptide 49-67, RAHYNIVTF (SEQ ID NO: 1), containing a CTL epitope was fused to PADRE containing a CD4+ T helper epitope by Polypeptide Group (San Diego, Calif., USA). This peptide is hereafter designated as FP.
# To formulate the vaccines herein, 160 micrograms of FP was mixed with a DOPC/cholesterol mixture (10:1, w/w, Lipoid GmbH, Germany) dissolved in tert-butanol. When lipid A mimics were included, 160 micrograms of JL-265 or JL-266 were added to the FP/DOPC/chol mixture. The mixture was lyophilized and then reconstituted in reconstituted in […] of sterile water to formulate liposomes containing antigen with or without lipid A mimic. Each vaccine dose was 50 microlitres and contained 10 micrograms of FP peptide with or without 10 micrograms of lipid A mimic (JL-265 or JL-266).
# (§7) To test the efficacy of these liposome-based vaccine formulations, groups of mice (7 mice per group) were implanted subcutaneously in the left flank with 5×10E5 C3 cells suspended in 100 microlitres of HBSS media. Five days later, mice were vaccinated subcutaneously in the right flank with 50 microlitres of vaccine. Mice in Group 1 were vaccinated with FP peptide (10 micrograms) in liposomes containing no lipid A mimic. Mice in Group 2 were vaccinated with FP peptide (10 micrograms) in liposomes containing JL-265 (10 micrograms). Mice in Group 3 were vaccinated with FP peptide (10 micrograms) in liposomes containing JL-266 (10 micrograms). Mice in Group 4 served as a tumor growth control and were vaccinated with saline containing no antigen or lipid A mimic.
# [3] = tested on: bone marrow dendritic cells of C3H/HeJ (TLR4 mutant) mice; experiment: Dendritic cell activation (CD40/CD86, flow cytometry), TLR4 mutant cells (Example 13); assay type: cell-based, mouse; conditions: FIG. 7; for expression of CD40 and CD86 on CD11c positive dendritic cells, versus wild-type: TLR4 mutant dendritic cells, 20 micrograms/millilitre, overnight stimulation; for induction of CD40 and CD86 relative to LPS: TLR mutant mice dendritic cells
# Experimental: as §1, §2, §3
# [4] = tested on: antigen-specific IFN-gamma response to R9F peptide (splenocytes); experiment: IFN-gamma ELISPOT immunogenicity of DPX vaccine (Example 14); assay type: in vivo, mouse (C57BL6); conditions: R9F+F21E in DPX with 5 micrograms lipid A mimic, FIG. 8; for enhancement of antigen-specific IFN-gamma response to R9F: s.c., spleens eight days after vaccination
# From the text: as §4
# The peptides used in this example were synthesized by Polypeptide Group (San Diego, Calif., USA). Vaccines contained the MHC class I epitope HPV16E7 (H-2Db) 49-67 (RAHYNIVTF, R9F; […]; SEQ ID NO: 23).
# (§8) To formulate vaccines described herein, a 10:1 mixture of dioleoyl phosphatidylcholine (DOPC) (120 milligrams/mL) and cholesterol (12 milligrams/mL) was solubilized in tert-butanol. R9F and F21E peptide antigens were first solubilized in dimethyl sulfoxide and then added to the DOPC/cholesterol/tert-butanol mixture. The lipid A mimics JL-265 and JL-266 were first solubilized in dimethyl sulfoxide. Where indicated, JL-265 or JL-266 were also added to the FP/DOPC/tert-butanol mixture. A dry homogeneous mixture of antigen with or without lipid A mimic was prepared by removing the solvent and water present in the formulation by lyophilization. The dry mixture was then suspended in Incomplete Freund's adjuvant, a mineral oil-based model hydrophobic carrier. This formulation is henceforth referred to as DepoVax (DPX).
# To test the immunogenicity of the vaccine, naïve mice (n=5) were immunized subcutaneously with 50 microlitres of DPX vaccine containing R9F and F21E with no lipid A mimic (Group 1), 5 micrograms of JL-265 (Group 2) or 5 micrograms of JL-266 (Group 3). Mice in Group 4 (n=2) were not immunized and served as the naïve control. Eight days after vaccination, mice in all groups were terminated and spleens collected. A single cell suspension of splenocytes was prepared at a concentration of 5×10E6 cells per milliliter and 100 microlitres added to wells of a 96-well ELISPOT plate pre-coated with anti-IFN-gamma (BD Bioscience). In duplicate, 100 microlitres of media containing 20 micrograms per milliliter of an irrelevant peptide antigen or R9F was added to the splenocytes, or media containing no peptide as a background control. The plate was incubated overnight at 37° C. and developed next day following manufacturers instructions using AEC chromogen (Sigma-Aldrich). Spots were quantified using ELISPOT plate reader (C.T.L., Shaker Heights).
# [5] = tested on: C3 tumors (HPV16-expressing C3 cells); experiment: C3 tumor challenge, oil-based (IFA) vaccine (Example 11); assay type: in vivo, mouse (C57BL6); conditions: at 28 days; FP peptide 10 micrograms in oil (IFA) with 10 micrograms lipid A mimic, FIG. 5
# From the text: as §4, §5, §6
# To formulate the vaccine herein, FP peptide was solubilized in dimethyl sulfoxide and mixed with Incomplete Freund's adjuvant (IFA). […]
# [6] = tested on: C3 tumors (HPV16-expressing C3 cells); experiment: C3 tumor challenge, DepoVax (DPX) vaccine (Example 12); assay type: in vivo, mouse (C57BL6); conditions: for tumor volume fold smaller than control DepoVax composition (Group 1): Table 2, DepoVax; for Tumor Volume (mm^3): Table 2, Example 12, FP peptide 10 micrograms + lipid A mimic 10 micrograms in DepoVax, s.c. on day 5 after C3 implantation; for tumor volumes compared to control groups: at 40 days, DPX vaccine, FIG. 6
# From the text: as §4, §5, §6
# as §8, with “in tert-butanol. FP antigen was first solubilized” for “in tert-butanol. R9F and F21E peptide antigens were first solubilized”, “in dimethyl sulfoxide, although a water suspension of FP can also be used, and then” for “in dimethyl sulfoxide and then”
# as §7, with “oil-based” for “liposome-based”, “(8” for “(7”, “DPX” for “liposomes”
Compound,expression of CD40 and CD86 on CD11c positive dendritic cells [1],induction of CD40 and CD86 relative to LPS [1],Tumor Volume (mm^3) [2] [mm^3],tumor volumes compared to control groups [2],"expression of CD40 and CD86 on CD11c positive dendritic cells, versus wild-type [3]",induction of CD40 and CD86 relative to LPS [3],enhancement of antigen-specific IFN-gamma response to R9F ([4]; versus no lipid A mimic),increase in the immune response (IFN-gamma ELISPOT) ([4]; versus no lipid A mimic) [fold],tumor volumes compared to control groups [5],tumor volume fold smaller than control DepoVax composition (Group 1) [6],Tumor Volume (mm^3) [6] [mm^3],tumor volumes compared to control groups [6],"expression of CD40 and CD86 on CD11c positive dendritic cells, versus wild-type ([3]; listed as polyI:C)",generation of an immune response (IFN-gamma ELISPOT) [4]
CCCCCCCCCCCCCC(=O)O[C@H](CCCCCCCCCCC)CC(=O)NC1C(OC(=O)C[C@@H](CCCCCCCCCCC)OC(=O)CCCCCCCCCCCCC)[C@H](OP(=O)(O)O)C(CO)O[C@H]1OCCN(C(=O)C[C@@H](CCCCCCCCCCC)OC(=O)CCCCCCCCCCCCC)c1cccc(OP(=O)(O)O)c1 (stereo in doubt) [JL-266],strong increased expression,the same as LPS,380 ± 86,significantly smaller tumor volumes,significantly reduced,slightly lower induction,did,~2,significantly smaller tumor volumes,~6.3 fold,219 ± 139,significantly smaller tumor volumes,,
poly I:C [reference compound],increase in expression,,,,comparably to wild-type dendritic cells,,,,,,,,comparable stimulation,
CCCCCCCCCCCCCC(=O)O[C@H](CCCCCCCCCCC)CC(=O)NC1C(OC(=O)C[C@@H](CCCCCCCCCCC)OC(=O)CCCCCCCCCCCCC)[C@H](OP(=O)(O)O)C(CO)O[C@H]1OCCN(C(=O)C[C@@H](CCCCCCCCCCC)OC(=O)CCCCCCCCCCCCC)c1cccc(O)c1 (stereo in doubt) [JL-265],strong increased expression,the same as LPS,319 ± 122,significantly smaller tumor volumes,significantly reduced,slightly lower induction,did not enhance,,significantly smaller tumor volumes,about 3.1 fold,445 ± 395,significantly smaller tumor volumes,,capable of generating an immune response
"lipopolysaccharide [LPS, reference compound]",increase in expression,,,,significantly reduced,,,,,,,,,
